In patent US10689344B2, “Biphenylamide derivative Hsp90 inhibitors” (University of Kansas, priority 2013, dated 2020):

Columns and labels:
Format in all cases: cell-based
[1] = tested on: SKBr3 (estrogen receptor negative, HER2 over-expressing breast cancer cells); test: Anti-proliferation assay (MTS/PMS, 72 h), SKBr3; settings: Homo sapiens
Procedure, shortened: (§1)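 Cells seeded at 2000/well, attached overnight, then exposed to compound at varying concentrations (1% DMSO final) for 72 h at 37° C, 5% CO2. Viability by MTS/PMS, normalised to 1% DMSO controls as 100% proliferation; IC50 from separate triplicate experiments.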

[2] = tested on: MCF-7 (estrogen receptor positive breast cancer cells); test: Anti-proliferation assay (MTS/PMS, 72 h), MCF-7; settings: Homo sapiens
Procedure, shortened: as §1

[3] = tested on: Hsp90-dependent client proteins (Her2, Raf, Akt) in MCF-7 cells; test: Western blot analyses of Hsp90-dependent client proteins from MCF-7 cell lysate; settings: for non-Hsp90-dependent protein actin (western blot): FIG. 1; for Hsp90-dependent client proteins Her2, Raf, and Akt (western blot): FIG. 1, at the same concentration needed to manifest anti-proliferative activity (H 5-fold, L 1/2)
Description: (§2) FIG. 1—Western blot analyses of Hsp90-dependent client proteins from MCF-7 breast cancer cell lysate upon treatment with biphenyl derivatives. H represents a concentration equal to 5-fold of the anti-proliferative activity. L represents a concentration ½ of the anti-proliferative activity. Geldanamycin (G, 0.5 μM) and dimethylsulfoxide (D, 100%) were employed as positive and negative controls.
as §2, with “FIGS. 2A & 2B—Western” for “FIG. 1—Western”, “derivatives. Concentrations (in μM) were indicated above each line.” for “derivatives.”, “equal to 0.5-fold” for “½”, “(GDA,” for “(G,”, “(DMSO,” for “(D,”
FIG. 3—Western blot analyses of Hsp90-dependent client proteins from MCF-7 breast cancer cell lysate upon treatment with compound 6l. Concentrations (in μM) were indicated above each line, and geldanamycin (GDA, 0.5 μM) and dimethylsulfoxide (DMSO) were employed as positive and negative controls.
MCF-7 cells were cultured as described above and treated with various concentrations of drug, GDA in DMSO (1% DMSO final concentration), or vehicle (DMSO) for 24 h. Cells were harvested in cold PBS and lysed in RIPA lysis buffer containing 1 mM PMSF, 2 mM sodium orthovanadate, and protease inhibitors on ice for 1 h. Lysates were clarified at 14000 g for 10 min at 4° C. Protein concentrations were determined using the Pierce BCA protein assay kit per the manufacturer's instructions. Equal amounts of protein (20 μg) were electrophoresed under reducing conditions, transferred to a nitrocellulose membrane, and immunoblotted with the corresponding specific antibodies. Membranes were incubated with an appropriate horseradish peroxidase-labeled secondary antibody, developed with a chemiluminescent substrate, and visualized.

[4] = tested on: JMAR (Head and Neck Cancer); test: Activity of compounds in cancer cell lines, JMAR; settings: Table 12, JMAR (Head and Neck Cancer)
Description: Biological activity of these compounds of the present disclosure may be measured using a variety of different methods and techniques. In some embodiments of the present disclosure, the activity is measuring using anti-proliferation assays to determine an IC50 value for particular cell lines such as JMAR and MCF-7. Additionally, in other embodiments, the activity of the instant compounds is measuring using Western blot and measuring protein expression in a variety of different downstream poteins regulated by Hsp90.
Cells were maintained in a 1:1 mixture of Advanced DMEM/F12 (Gibco) supplemented with non-essential amino acids, L-glutamine (2 mM), streptomycin (500 μg/mL), penicillin (100 units/mL), and 10% FBS. Cells were grown to confluence in a humidified atmosphere (37° C., 5% CO2), seeded (2000/well, 100 μL) in 96-well plates, and allowed to attach overnight. Compound at varying concentrations in DMSO (1% DMSO final concentration) was added, and cells were returned to the incubator for 72 h. At 72 h, the number of viable cells was determined using an MTS/PMS cell proliferation kit (Promega) per the manufacturer's instructions. Cells incubated in 1% DMSO were used at 100% proliferation, and values were adjusted accordingly. IC50 values were calculated from separate experiments performed in triplicate using GraphPad Prism.

[5] = SK-BR-3, Table 1, ortho, meta and para biphenyl cores
[6] = SK-BR-3, Table 9, para-meta biphenyl core with prenylated benzylamide
[7] = MCF7, Table 1, ortho, meta and para biphenyl cores
[8] = MCF7, Table 9, para-meta biphenyl core with prenylated benzylamide
[9] = MCF-7 cells, FIG. 1, all concentrations tested
[10] = SK-BR-3, Table 3, substituted para-para biphenyl core
[11] = SK-BR-3, Table 5, modified linkers in para-para biphenyl core
[12] = SK-BR-3, Table 7, para-para biphenyl core with modified ether groups
[13] = SK-BR-3, Table 8, para-para biphenyl core with substituted biphenylamide group
[14] = MCF7, Table 3, substituted para-para biphenyl core
[15] = MCF7, Table 5, modified linkers in para-para biphenyl core
[16] = MCF7, Table 7, para-para biphenyl core with modified ether groups
[17] = MCF7, Table 8, para-para biphenyl core with substituted biphenylamide group
[18] = SK-BR-3, Table 6, para-para biphenyl core with substituted benzylamide
[19] = MCF7, Table 6, para-para biphenyl core with substituted benzylamide

What does the source list for `COc1cccc(-c2cc(C(=O)Nc3cccc(-c4ccc(OC5CCN(C)CC5)cc4)c3)ccc2OC)c1` [Compound 6a, 3′,6-dimethoxy-N-(4′-((1-methylpiperidin-4-yl)oxy)-[1,1′-biphenyl]-3-yl)-[1,1′-biphenyl]-3-carboxamide]?
IC50 [1, 5]: 3650 ± 140 nM; IC50 [1, 6]: 3470 ± 470 nM; IC50 [2, 7]: 1250 ± 20 nM; IC50 [2, 8]: 2710 ± 400 nM; Hsp90 client proteins Her2 and Raf-1 (western blot) ([3]; MCF-7 cell lysates, FIG. 2A, concentrations that mirror anti-proliferative IC50 values): degraded; non-Hsp90-dependent protein actin (western blot) ([3]; MCF-7 cells): not affected; Hsp90 levels (western blot) [3, 9]: remained constant; Hsp90-dependent client proteins Her2, Raf, and Akt (western blot) ([3]; MCF-7 cells): degradation in a concentration-dependent manner

How did the IC50 ([1]; SK-BR-3, Table 2, para-meta biphenyl core with substituted benzylamide) turn out when `CN1CCC(Oc2ccc(-c3cccc(NC(=O)c4ccc(Br)cc4)c3)cc2)CC1` [Compound 6l, 4-Bromo-N-(4′-((1-methylpiperidin-4-yl)oxy)-[1,1′-biphenyl]-3-yl)benzamide] was run?
Its IC50 is 1940 ± 110 nM.

What about the IC50 ([2]; MCF7, Table 2, para-meta biphenyl core with substituted benzylamide) of the same molecule?
Its IC50 is 880 ± 70 nM.

What about the “Hsp90-dependent client proteins Her2, Raf-1 and p-Akt (western blot)” value ([3]; MCF-7 cell lysates, FIG. 3) of the same molecule?
The value was “degraded in a concentration dependent manner”.

And the “Hsp90 levels (western blot)” value ([3]; MCF-7 cell lysates, FIG. 3)?
The value was “remained unchanged”.

What about the “actin levels (western blot)” value ([3]; MCF-7 cell lysates, FIG. 3) of the same molecule?
Its value is “remained constant”.

How did the IC50 [4] turn out when `CN1CCC(Oc2ccc(-c3cccc(NC(=O)c4ccc(Br)cc4)c3)cc2)CC1` [drawing 161] was run?
Its IC50 is 110 nM.

Which results are given for `CC(C)=CCc1cc(C(=O)Nc2cccc(-c3ccc(OC4CCN(C)CC4)cc3)c2)ccc1O` [Compound 3a]?
IC50 [1, 6]: 2940 ± 110 nM; IC50 [2, 8]: 2210 ± 60 nM; Her2, Raf-1 and p-Akt (western blot, concentration-dependent analysis) ([3]; MCF-7 cell lysates, FIG. 2B): degradation of Her2, Raf-1 and p-Akt

With `COc1ccc(C(=O)Nc2ccc(Nc3ccc(OC4CCN(C)CC4)cc3)cc2)cc1` [drawing 162] as the molecule, how does the IC50 [4] read?
The IC50 was 9.7 nM.

What does the source list for `COc1cccc(-c2cc(C(=O)Nc3ccc(-c4ccc(OC5CCN(C)CC5)cc4)cc3)ccc2OC)c1` [Compound 9a, 3′,6-dimethoxy-N-(4′-((1-methylpiperidin-4-yl)oxy)-[1,1′-biphenyl]-4-yl)-[1,1′-biphenyl]-3-carboxamide]?
IC50 [1, 5]: 470 ± 60 nM; IC50 [1, 10]: 470 ± 60 nM; IC50 [1, 11]: 470 ± 60 nM; IC50 [1, 12]: 470 ± 60 nM; IC50 [1, 13]: 470 ± 60 nM; IC50 [2, 7]: 710 ± 20 nM; IC50 [2, 14]: 710 ± 20 nM; IC50 [2, 15]: 710 ± 20 nM; IC50 [2, 16]: 710 ± 20 nM; IC50 [2, 17]: 710 ± 20 nM; non-Hsp90-dependent protein actin (western blot) ([3]; MCF-7 cells): not affected; Hsp90 levels (western blot) [3, 9]: remained constant; Hsp90-dependent client proteins Her2, Raf, and Akt (western blot) ([3]; MCF-7 cells): degradation in a concentration-dependent manner

What does the source list for `COc1cccc(-c2cc(C(=O)Nc3ccc(-c4ccc(OC5CCN(C)CC5)cc4NC(C)=O)cc3)ccc2OC)c1` [Compound 39b, N-(2′-acetamido-4′-((1-methylpiperidin-4-yl)oxy)-[1,1′-biphenyl]-4-yl)-3′,6-dimethoxy-[1,1′-biphenyl]-3-carboxamide]?
IC50 [1, 10]: 3390 ± 660 nM; IC50 [2, 14]: 1360 ± 230 nM

Which results are given for `COc1cccc(-c2cc(NC(=O)Nc3ccc(-c4ccc(OC5CCN(C)CC5)cc4)cc3)ccc2OC)c1` [Compound 52, 1-(3′,6-dimethoxy-[1,1′-biphenyl]-3-yl)-3-(4′-((1-methylpiperidin-4-yl)oxy)-[1,1′-biphenyl]-4-yl)urea]?
IC50 [1, 11]: 910 ± 80 nM; IC50 [2, 15]: 1260 ± 130 nM

`COc1cccc(-c2cc(C(=O)Nc3ccc(-c4ccc(OCCC5CCCCN5)cc4)cc3)ccc2OC)c1` (stereo not shown) [Compound 56a, 3′,6-dimethoxy-N-(4′-(2-(piperidin-2-yl)ethoxy)-[1,1′-biphenyl]-4-yl)-[1,1′-biphenyl]-3-carboxamide] was tested. Which IC50 [1, 12] did it give?
The IC50 was 850 ± 200 nM.

What about the IC50 [2, 16] of the same molecule?
Its IC50 is 950 nM.

Which results are given for `COc1cccc(-c2cc(C(=O)Nc3ccc(-c4ccc(OC5CCN(C)CC5)c(NC(C)=O)c4)cc3)ccc2OC)c1` [Compound 39a, N-(3′-acetamido-4′-((1-methylpiperidin-4-yl)oxy)-[1,1′-biphenyl]-4-yl)-3′,6-dimethoxy-[1,1′-biphenyl]-3-carboxamide]?
IC50 [1, 10]: 2660 ± 760 nM; IC50 [2, 14]: 1840 ± 430 nM

Which results are given for `COc1cccc(-c2cc(C(=O)Nc3ccc(-c4ccc(OC5CCN(C)CC5)cc4Cl)cc3)ccc2OC)c1` [Compound 29j, N-(2′-chloro-4′-((1-methylpiperidin-4-yl)oxy)-[1,1′-biphenyl]-4-yl)-3′,6-dimethoxy-[1,1′-biphenyl]-3-carboxamide]?
IC50 [1, 10]: 3680 nM; IC50 [2, 14]: 3120 nM

`COc1ccc(C(=O)Nc2ccc(-c3ccc(OC4CCN(C)CC4)cc3)cc2)cc1-c1cccc(NC(C)=O)c1` [Compound 50d, 3′-acetamido-6-methoxy-N-(4′-((1-methylpiperidin-4-yl)oxy)-[1,1′-biphenyl]-4-yl)-[1,1′-biphenyl]-3-carboxamide] was tested. Which IC50 [1, 13] did it give?
Its IC50 is 3370 ± 740 nM.

What about the IC50 [2, 17] of the same molecule?
The IC50 was 1430 ± 280 nM.

Which results are given for `COc1cccc(-c2cc(C(=O)Nc3ccc(-c4ccc(OC5CCN(C)CC5)cc4)c(NC(C)=O)c3)ccc2OC)c1` [Compound 39c, N-(2-acetamido-4′-((1-methylpiperidin-4-yl)oxy)-[1,1′-biphenyl]-4-yl)-3′,6-dimethoxy-[1,1′-biphenyl]-3-carboxamide]?
IC50 [1, 10]: 2520 ± 260 nM; IC50 [2, 14]: 4660 ± 490 nM

How did the IC50 [1, 10] turn out when `COc1cccc(-c2cc(C(=O)Nc3ccc(-c4ccc(OC5CCN(C)CC5)cc4OC)cc3)ccc2OC)c1` [Compound 29f, 3′,6-dimethoxy-N-(2′-methoxy-4′-((1-methylpiperidin-4-yl)-oxy)-[1,1′-biphenyl]-4-yl)-[1,1′-biphenyl]-3-carboxamide] was run?
The IC50 was 1410 ± 350 nM.

What about the IC50 [2, 14] of the same molecule?
The IC50 was 1350 ± 160 nM.

Which results are given for `CN1CCC(Oc2ccc(-c3ccc(NC(=O)c4ccc(Cl)cc4)cc3)cc2)CC1` [Compound 41b, 4-chloro-N-(4′-((1-methylpiperidin-4-yl)oxy)-[1,1′-biphenyl]-4-yl)benzamide]?
IC50 [1, 5]: 570 ± 10 nM; IC50 [1, 18]: 570 ± 10 nM; IC50 [2, 7]: 520 ± 30 nM; IC50 [2, 19]: 520 ± 30 nM

What does the source list for `Cc1ccc(C(=O)Nc2ccc(-c3ccc(OC4CCN(C)CC4)cc3)cc2)cc1Br` [Compound 41l, 3-bromo-4-methyl-N-(4′-((1-methylpiperidin-4-yl)oxy)-[1,1′-biphenyl]-4-yl)benzamide]?
IC50 [1, 18]: 2800 ± 180 nM; IC50 [2, 19]: 3350 ± 360 nM

Which results are given for `CN1CCC(Oc2ccc(-c3ccc(NC(=O)c4ccc(C(C)(C)C)cc4)cc3)cc2)CC1` [Compound 41g, 4-(tert-butyl)-N-(4′-((1-methylpiperidin-4-yl)oxy)-[1,1′-biphenyl]-4-yl)benzamide]?
IC50 [1, 5]: 1260 ± 370 nM; IC50 [1, 18]: 1260 ± 370 nM; IC50 [2, 7]: 1080 ± 80 nM; IC50 [2, 19]: 1080 ± 80 nM

`COc1cccc(-c2cc(C(=O)Nc3ccc(-c4ccc(OC5CCN(C)CC5)cc4[N+](=O)[O-])cc3)ccc2OC)c1` [Compound 34b, 3′,6-dimethoxy-N-(4′-((1-methylpiperidin-4-yl)oxy)-2′-nitro-[11′-biphenyl]-4-yl)-[1,1′-biphenyl]-3-carboxamide] was tested. Which IC50 [1, 10] did it give?
Its IC50 is 1070 nM.

And the IC50 [2, 14]?
The IC50 was 1300 ± 120 nM.

What does the source list for `CC(=O)Oc1ccc(C(=O)Nc2cccc(-c3ccc(OC4CCN(C)CC4)cc3)c2)cc1CC=C(C)C` [Compound 61e, 2-(3-methylbut-2-en-1-yl)-4-((4′-((1-methylpiperidin-4-yl)oxy)-[1,1′-biphenyl]-3-yl)carbamoyl)phenyl acetate]?
IC50 [1, 5]: 3470 nM; IC50 [2, 7]: 2710 ± 400 nM
